Reference: patent US20250361271A1, “PEPTIDE AGONIST” (THE UNIVERSITY OF BIRMINGHAM, priority 2022, published 2025)
Read-outs that look alike come from different tables or passages of the source. Where a SMILES comes first, the peptide text is derived from it. [ ]: non-standard residue; d: D form. pGlu = O=C1CC[C@@H](C(=O)O)N1

Key:
T1/2 in plasma (mouse) = type: in vitro ADME; settings: mouse, plasma; 1 μM peptide, 37° C.
Description: Take all measurements in duplicate.

[1] = tested on: PBLs on cytokine stimulated HDBECs
Description: Blood samples were obtained from consensual healthy donors and were collected in EDTA tubes (Sigma-Aldrich). […] 5 ml of blood was layered on top of the density gradient, and was centrifuged at 2500 rpm for 45 minutes. […] The PBMCs were washed twice for 7 minutes at 1500 rpm. Peripheral blood lymphocytes (PBLs) were isolated via panning PBMCs onto a culture flask for 30 minutes at 37° C., allowing monocytes to adhere.
HDBECS defrosted at 37° C. in a 25 cm^2 cell culture flask in 10 ml of media were dissociated using EDTA (Sigma-Aldrich) and Trypsin (Gibco) and seeded on 10 wells in a 12-well tissue culture plates (Falcon) and left to adhere at 37° C. After 24 hours, confluent endothelial layers were cytokine stimulated using 100 U/ml TNF-α (Sigma-Aldrich) and 10 ng/ml IFN-γ (Peprotech) for 24 hours at 37° C. The peptide treatment of the 1×10^6 cells/ml PBLs consisted of adding the peptides immediately before use. […] 1×10^6 PBLs were added to each well and incubated at 37° C., allowing PBLs to adhere to migrate across the endothelium. […] Cells were then fixed with 2% glutaraldehyde for 10 minutes and then imaged using phase-contrast microscopy via an inverted bright-field microscope at 20× magnification.
Imaging of the PBL migration assay was carried out using ImagePro 7 software (Media Cybernetics). Surface adherent cells were categorised as being phase-bright, and transmigrated cells were categorised as phase-dark with altered morphology, appearing as being under the endothelial layer. Images were taken at 5 different fields of each well, and an average of counted adherent and migrated PBLs was calculated.
The same methods described for the in vitro transmigration assay and analysis were used, and PBL transmigration was calculated as a percentage of adherent cells. Peptides were added to the PBLs at concentrations ranging from 0.0001-500 ng/ml on the cytokine stimulated HDBECs and the resulting PBL transmigration (as a percentage of adherent cells) was plotted as a function of log10 of the peptide concentration.
The peptides were added at concentration of 20 ng/ml and run alongside untreated PBL (PBL0) and scrambled protein to analyse their effects on adhesion and transmigration.

[2] = human, plasma
Description: Store at −20° C. or on ice. • 2) Thaw the plasma and spin in a centrifuge at 1500×g for 10 minutes at room temperature. • 3) Prepare stock solution of the peptide at 10 mM in dimethyl sulfoxide (DMSO) or phosphate buffered saline (PBS) and dilute solutions by adding 3 μL of 10 mM stock to 297 μL DMSO or PBS (100 µM stock for a final 1 μM concentration). • 4) Add 550 μL plasma to an incubation tube and separately add 5 μL of peptide stock solution to an incubation tube. Warm the incubation tubes (5 minutes, 37° C., with shaking). • 5) After warming, add 495 μL of warmed plasma to warmed peptide (time=0). Mix well and shake the tube containing the mixed sample (37° C., 1500×g). • 6) At 2, 5, 15, 30, 45 and 60 minutes after contacting the peptide and plasma, collect 40 μL of the sample into pre-prepared quench tubes. • 7) Analyse the sample at each time point by mass spectrometry. Take all measurements in duplicate.
The samples were analysed and the T1/2 values were calculated by XenoGesis. The T1/2 values correspond to the time taken for the concentration of the peptide in the blood or plasma to be reduced by 50%.

C[C@H](NC(=O)CNC(=O)[C@@H]1CCC(=O)N1)C(=O)O [SEQ ID NO. 21, pEGA] ([pGlu]-Gly-Ala-OH)
half-life (T1/2 in plasma (mouse)): > 3 h | IC50 [1]: 0.12 nM | % Inhibition (3 nM) ([1]; 3 nM peptide, inhibition of PBL transmigration (as a percentage of adherent cells)): 41.20% | half-life [2]: > 3 h
